For data set [1], the system named is Tγ9δ2 lymphocytes. As to the kind of experiment: Induced cytotoxicity test, Tγ9δ2 lymphocyte clone stimulated by antigen BrHPP.
In data set [2] the test system is Tγ9δ2 lymphocytes. The following applies: FIG. 7 lower. The method, then:
The two left graphs are obtained by stimulating the Tγ9δ2 lymphocytes as in Example 12, by adding first 9 nM of BrHPP antigen into the culture medium, then by adding increasing concentrations (on the abscissa) of the compound according to the invention, BrHPCP. The two right hand graphs are obtained by incorporating first of all 60 μM of the compound according to the invention, BrHPCP, into the culture medium in contact with the Tγ9δ2 lymphocytes, then by adding increasing concentrations (on the abscissa) of the antigen compound stimulating BrHPP. […] The upper graphs give the percentage of residual response in the cultures (induced cytotoxicity test). The lower graphs give the concentration of TNF salted out in pg/ml.

Data set [3] concerns Tγ8δ3 lymphocytes. The following applies: clone stimulated by a conventional antigen; increasing concentrations; FIG. 8. The method, then:
A test of induced cytotoxicity is carried out as in Example 12, but with a clone of Tγ8δ3 lymphocyte stimulated by a conventional antigen of these lymphocytes (black circles), and in the presence of the compound according to the invention BrHPCP in increasing concentrations in the culture medium (black squares in FIG. 8).

Setting [4] is: read-out: IC50 concentration leading to the inhibition of 50% of the reference response, lymphocytes stimulated by 80 nM BrHPP, induced cytotoxicity test.
The mark [5] stands for this setting: read-out: bioactivity (selective inhibition of Tγ9δ2 lymphocytes), concentration of BrHPP equal to 150 μM (so in the source).

Read-outs that look alike come from different tables or passages of the source.

Results on ten compounds are retold here after US6624151B1, “Compounds selectively inhibiting gamma 9 delta 2 T lymphocytes” (Institut National de la Sante et de la Recherche Medicale, priority 1999, dated 2003).

Consider “3-Methyl-3-butene-1-yl-methylenediphosphonate [I PCP]”, for which, in data set [1] (setting [4]), the IC50 came to 700 µM.
On the same count and under the same terms, next, `CC(O)(CBr)CCOP(=O)(O)C(F)(F)P(=O)(O)O` (stereo not shown) [BrH PCF2P, 3-(Bromomethyl)-3-butanol-1-yl-difluoromethylenediphosphonate]: 150 µM.
Consider `CC(O)(CBr)CCOP(=O)(O)CP(=O)(O)O` (stereo not shown) [BrH PCP, 3-(Bromomethyl)-3-butanol-1-yl-methylenediphosphonate], for which the “inhibition of stimulation by BrHPP (TNF salted out)” value in data set [2] (9 nM BrHPP first, then increasing BrHPCP) was “inhibits the stimulation by BrHPP”. Further, the “reversibility of inhibition (TNF salted out)” value in data set [2] (60 μM BrHPCP first, then increasing BrHPP) is “reversible”. For the same compound, the “inhibition of Tγ8δ3 lymphocytes” value in data set [3] is recorded as “does not inhibit the Tγ8δ3 lymphocytes”. In data set [1] (9 nM BrHPP first, then increasing BrHPCP, FIG. 7 upper), the “inhibition of stimulation by BrHPP (residual response, induced cytotoxicity)” value is “inhibits the stimulation by BrHPP”. Further, in data set [1] (60 μM BrHPCP first, then increasing BrHPP, FIG. 7 upper), the “reversibility of inhibition (induced cytotoxicity)” value was “reversible”. Further, the IC50 in data set [1] (setting [4]) stood at 15 µM.
Take `CC(O)(CBr)CCOP(=O)(O)C(F)P(=O)(O)O` (stereo not shown) [BrHPCHFP, 3-(bromomethyl)-3-butanol-1-yl-monofluoromethylenediphosphonate]: in data set [1] (setting [5]), the IC50 was found to be 30 µM.
Regarding `CC1(CCOP(=O)(O)C(F)(F)P(=O)(O)O)CO1` (stereo not shown) [Epox PCF2P, 3,4-Epoxy-3-methyl-1-butyl-difluoromethylenediphosphonate], the IC50 in data set [1] (setting [4]) worked out at 300 µM.
For `CC1(CCOP(=O)(O)C(F)P(=O)(O)O)CO1` (stereo not shown) [Epox PCHFP, 3,4-epoxy-3-methyl-1-butyl-monofluoromethylenediphosphonate], the IC50 in data set [1] (setting [5]) stood at 50 µM.
`CC1(CCOP(=O)(O)CP(=O)(O)O)CO1` (stereo not shown) [Epox PCP, 3,4-Epoxy-3-methyl-1-butyl-methylenediphosphonate]: the IC50 in data set [1] (setting [4]) came out at 30 µM; in data set [1] (read-out: IC50 concentration, stated in text (formulation example), IC50 defined with BrHPP at 80 nM), 15 µM.
Consider `C=C(C)CCOP(=O)(O)C(F)(F)P(=O)(O)O` [I PCF2P, 3-Methyl-3-butene-1-yl-difluoromethylenediphosphonate], for which the IC50 in data set [1] (setting [4]) came to 1000 µM.
Still for that read-out and setting: next, `CC(O)(CI)CCOP(=O)(O)CP(=O)(O)O` (stereo not shown) [IH PCP, 3-(Iodomethyl)-3-butanol-1-yl-methylenediphosphonate]: 15 µM.
The same measure, in the same setting: the result for `CC(C)(O)CCOP(=O)(O)CP(=O)(O)O` [tButOH PCP, 3-Methyl-3-butanol-1-yl-methylenediphosphonate] reads 1000 µM.
